# According to patent publication EP1028734B1, “USE OF SPECIFIC STEADY-STATE R-TYPE CALCIUM CHANNEL BLOCKERS” (priority 1997, dated 1999):
# Read-outs that look alike come from different tables or passages of the source.
# Experiments:
# [1] = system: R-type Ca^2+ channel; experiment: block of R-type Ca2+ channel (data not shown); assay type: cell-based
# [2] = writhe responses in mice (acetic acid, acetylcholine, kaolin); assay type: in vivo; conditions: i.p., mice; for ID50 ACETYLCHOLINE: acetylcholine-induced writhes; for ID50 KAOLIN: kaolin-induced writhes
# Description: (§1) The antinociceptive actions of compound MV 8612 and MV 8608 were investigated in different models of nociception in mice as reported previously (Vaz et al., 1996, J. Pharmacol. Exp. Ther. 278:304-312).
# [3] = tail-flick in mice; assay type: in vivo; conditions: i.p.
# Description: as §1
# [4] = organ (allograft) transplant with cyclosporin A treatment, ET-1, blood flow, hypertension; assay type: in vivo, rabbit
# [5] = system: human osteoblast cancer lines (MG63 and FAOS-2); experiment: spontaneous proliferation of human osteoblast cancer lines; assay type: cell-based; conditions: Lomir/Dynacirc 10^-8M, nifedipine 10^-6M, non published results
# [6] = system: fast Na^+ channel; experiment: block of fast Na+ channel (data not shown); assay type: cell-based; conditions: read-out: ED50, fast Na^+ channel
# [7] = La Civita et al., 1996; cited from earlier work
# [8] = anaesthetized rat, blood pressure, PAF challenge; assay type: in vivo; conditions: results not shown
# Description: (§2) On the other hand, in vivo administered PAF, induced a marked hypotension in the anaesthetized rat and guinea pig.
# [9] = anaesthetized guinea pig, blood pressure and bronchoconstriction, PAF challenge; assay type: in vivo
# Description: as §2
# [10] = cited from earlier work
# [11] = transplant patients, Berg et al., 1991
compound,measurement,setting,value
COc1ccc([C@@H]2Sc3cc(Cl)ccc3N(CCN(C)C)C(=O)[C@@H]2OC(C)=O)cc1 [Clentiazem],block of the R-type Ca^2+ by L-type Ca^2+ channel blockers,[1],none were found to block
COc1ccc(CCN(C)CCCC(C#N)(c2cc(OC)c(OC)c(OC)c2)C(C)C)cc1OC (stereo not shown) [D600],block of the R-type Ca^2+ by L-type Ca^2+ channel blockers,[1],none were found to block
COc1cccc(CCN(C)CCCC(C#N)(c2ccc(OC)c(OC)c2)C(C)C)c1 (stereo not shown) [D888],block of the R-type Ca^2+ by L-type Ca^2+ channel blockers,[1],none were found to block
COc1ccc([C@@H]2Sc3ccccc3N(CCN(C)C)C(=O)[C@@H]2OC(C)=O)cc1 [Diltiazem],block of the R-type Ca^2+ by L-type Ca^2+ channel blockers,[1],none were found to block
"COc1ccc2c(c1)c(CC(=O)O)c(C)n2C(=O)c1ccc(Cl)cc1 [INDOMETHACIN, indomethacin]",ID50 ACETIC ACID,[2]; acetic acid-induced writhes,1.2 (0.9-1.4) µmol/kg
same,ID50 ACETYLCHOLINE,[2],0.8 (0.5-1.0) µmol/kg
same,ID50 KAOLIN,[2],1.6 (1.4-1.8) µmol/kg
same,ID50 TAIL-FLICK,[3],no effect
"CN1CC[C@]23c4c5ccc(O)c4O[C@H]2[C@@H](O)C=C[C@H]3[C@H]1C5 [MORPHINE, morphine]",ID50 ACETYLCHOLINE,[2],1.4 (1.0-1.8) µmol/kg
same,ID50 KAOLIN,[2],1.4 (1.2-1.7) µmol/kg
same,ID50 TAIL-FLICK,[3],6.0(5.7-6.4) µmol/kg
COc1ccc(CCN(C)CCCC(C#N)(c2ccc(OC)c(OC)c2)C(C)C)cc1OC (stereo not shown) [Verapamil],block of the R-type Ca^2+ by L-type Ca^2+ channel blockers,[1],none were found to block
COC(=O)C1=C(C)NC(C)=C(C(=O)OC(C)C)C1c1cccc2nonc12 (stereo not shown) [isradipine],elevated circulating endothelin level induced with the Sandimmune drugs,[4]; data not shown,blocks
same,hypertension and ET-1 plasma elevation associated with cyclosporin A treatment in allograft transplant,[4]; non published results,blocked
same,increase of circulating ET-1 and decrease of blood flow in organ transplants,"[4]; rabbit, cyclosporin-A treated and transplanted animals",restored
same,spontaneous cell proliferation,[5],reduced
same,EC50,[6],~10 µM
same,"elevated plasma concentration of ET-1 level, frequency, severity of acute attacks of Raynaud's phenomenon",[7],significantly reduced
same,intrinsic hypotensive properties,[8],marked intrinsic hypotensive properties
same,intrinsic (hypotensive) effect,[9],marked intrinsic hypotensive properties
same,filtration fraction,"[10]; 3-month study, Grossman et al. 1991",remained constant
same,filtration fraction,[10]; [11],reduced
same,renal blood flow,[10]; [11],increased
COC(=O)C1=C(C)NC(C)=C(C(=O)OC)C1c1ccccc1[N+](=O)[O-] [nifedipine],intrinsic hypotensive properties,[8],marked intrinsic hypotensive properties
same,intrinsic (hypotensive) effect,[9],marked intrinsic hypotensive properties
